{"source": "patent US8063069B2", "about": "“Prucalopride-N-oxide” (Janssen Pharmaceutica N.V., priority 2002, dated 2011)", "key": {"[1]": {"assay": "pharmacokinetics of prucalopride in plasma after single oral administration to beagle dogs", "assay_type": "in vivo", "details": "for Cmax / Tmax: dog, plasma, po, 2.5 mg/kg; for Cmax: read-out: Cmax peak plasma concentration of prucalopride; for Tmax: read-out: Tmax time to reach the peak plasma concentration of prucalopride", "procedure": "Two male beagle dogs were dosed orally with 1 ml of a test formulation comprising 2.5 mg/kg of 4-amino-5-chloro-2,3-dihydro-N-[1-(3-methoxypropyl)-4-piperidinyl]-7-benzofuran-carboxamide (“prucalopride”).\nAfter a wash-out period of four weeks, the same two dogs were dosed orally with 1 ml of a test formulation comprising 2.61 mg/kg of compound (1).\nBlood samples were taken via the jugular vein immediately before dosing (blank sample) and at 0.25 h, 0.5 h, 1 h, 1.5 h, 2 h, 4 h, 6 h, 8 h, and 24 h after dosing. Aliquots of 10 ml were collected in EDTA tubes. Immediately after collection of the blood samples, plasma samples were prepared by centrifugation at approximately 1700×g for approximately 10 minutes.\nConcentrations of prucalopride in the plasma samples were determined by LC/MS/MS. The quantification limit for prucalopride was 5.0 ng/ml.\nBased on the individual plasma concentration-time data, using the actual sampling times, the following pharmacokinetic parameters were determined for prucalopride after oral administration of prucalopride and compound (1) and summarized in Table 1. • Cmax peak plasma concentration, determined by visual inspection of the data • Tmax time to reach the peak plasma concentration, determined by visual inspection of the data. • AUC0-∞ area under the plasma concentration-time extrapolated to infinity"}, "5-HT4 receptors": {"molecular_target": "5-HT4 receptors (Homo sapiens, UniProt Q13639)", "sequence (Q13639 whole entry)": "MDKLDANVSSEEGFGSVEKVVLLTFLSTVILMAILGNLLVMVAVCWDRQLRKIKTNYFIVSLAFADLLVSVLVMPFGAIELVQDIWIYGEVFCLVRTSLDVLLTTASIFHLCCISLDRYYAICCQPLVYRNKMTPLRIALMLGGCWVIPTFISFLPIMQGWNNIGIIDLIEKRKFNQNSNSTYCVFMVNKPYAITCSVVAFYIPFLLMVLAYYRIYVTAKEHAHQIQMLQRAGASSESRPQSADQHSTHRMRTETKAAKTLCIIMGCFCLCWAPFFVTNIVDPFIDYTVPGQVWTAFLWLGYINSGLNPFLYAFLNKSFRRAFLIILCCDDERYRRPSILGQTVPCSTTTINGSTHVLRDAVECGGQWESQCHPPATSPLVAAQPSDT", "details": "in words; cited from earlier work"}, "5-HT3A receptors": {"molecular_target": "T1, 5-HT3A receptors (Homo sapiens, UniProt P46098)", "T1 sequence (P46098 24-478)": "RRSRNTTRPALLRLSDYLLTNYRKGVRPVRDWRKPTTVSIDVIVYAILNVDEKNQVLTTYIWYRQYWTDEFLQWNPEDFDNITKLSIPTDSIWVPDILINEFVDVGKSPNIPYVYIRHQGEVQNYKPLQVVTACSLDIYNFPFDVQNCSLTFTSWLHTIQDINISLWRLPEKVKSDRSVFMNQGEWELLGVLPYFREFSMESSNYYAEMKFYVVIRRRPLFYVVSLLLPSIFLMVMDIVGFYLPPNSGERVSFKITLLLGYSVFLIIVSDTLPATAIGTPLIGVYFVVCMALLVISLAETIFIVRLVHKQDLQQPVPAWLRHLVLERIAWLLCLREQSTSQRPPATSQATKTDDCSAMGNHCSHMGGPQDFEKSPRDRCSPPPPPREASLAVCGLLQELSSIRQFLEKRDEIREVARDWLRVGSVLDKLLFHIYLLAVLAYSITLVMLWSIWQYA", "details": "in words; cited from earlier work"}, "colon": {"test_system": "colon", "details": "in words, cited from earlier work"}, "5-HT2A receptors": {"molecular_target": "5-HT2A receptors (Homo sapiens, UniProt P28223)", "sequence (P28223 whole entry)": "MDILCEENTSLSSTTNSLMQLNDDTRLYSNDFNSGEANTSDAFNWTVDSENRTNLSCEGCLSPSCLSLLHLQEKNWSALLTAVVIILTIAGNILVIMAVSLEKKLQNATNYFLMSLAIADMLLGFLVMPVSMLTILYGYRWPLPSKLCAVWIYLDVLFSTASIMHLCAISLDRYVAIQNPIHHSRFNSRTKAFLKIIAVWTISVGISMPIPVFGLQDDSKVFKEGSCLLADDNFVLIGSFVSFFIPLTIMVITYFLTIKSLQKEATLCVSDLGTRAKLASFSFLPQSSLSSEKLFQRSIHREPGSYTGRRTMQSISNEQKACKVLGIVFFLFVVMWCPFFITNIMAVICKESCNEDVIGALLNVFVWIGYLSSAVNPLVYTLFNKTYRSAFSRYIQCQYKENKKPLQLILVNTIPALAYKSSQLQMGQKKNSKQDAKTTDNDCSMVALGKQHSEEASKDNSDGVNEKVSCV", "details": "in words; cited from earlier work"}, "[2]": {"details": "Dog 1, oral administration of compound (1) 2.61 mg/kg, prucalopride measured in plasma"}, "[3]": {"details": "Dog 2, oral administration of compound (1) 2.61 mg/kg, prucalopride measured in plasma"}, "[4]": {"details": "oral administration, dogs, in words"}, "[5]": {"details": "male, beagle, Dog 1, oral administration of prucalopride 2.5 mg/kg, prucalopride measured in plasma"}, "[6]": {"details": "male, beagle, Dog 2, oral administration of prucalopride 2.5 mg/kg, prucalopride measured in plasma"}}, "note": "Where two headings read alike, the source gives them in different places."}
{"smiles": "COCCC[N@+]1([O-])CC[C@@H](NC(=O)c2cc(Cl)c(N)c3c2OCC3)CC1.O", "note": "[compound (1), cis-4-amino-5-chloro-2,3-dihydro-N-[1-(3-methoxypropyl)-4-piperidinyl]-7-benzofurancarboxamide, N-oxide monohydrate]", "values": [{"measurement": "AUC0-∞ area under the plasma concentration-time extrapolated to infinity, prucalopride", "setting": "[1]; [2]", "result": 2265, "unit": "ng·h/mL"}, {"measurement": "Cmax peak plasma concentration of prucalopride", "setting": "[1]; [2]", "result": 222, "unit": "ng/mL"}, {"measurement": "Tmax time to reach the peak plasma concentration of prucalopride", "setting": "[1]; [2]", "result": 2.0, "unit": "h"}, {"measurement": "AUC0-∞ area under the plasma concentration-time extrapolated to infinity, prucalopride", "setting": "[1]; [3]", "result": 4093, "unit": "ng·h/mL"}, {"measurement": "Cmax peak plasma concentration of prucalopride", "setting": "[1]; [3]", "result": 488, "unit": "ng/mL"}, {"measurement": "Tmax time to reach the peak plasma concentration of prucalopride", "setting": "[1]; [3]", "result": 2.0, "unit": "h"}, {"measurement": "peak plasma concentration Cmax of prucalopride, compared with oral prucalopride", "setting": "[1]; [4]", "result": "lower"}, {"measurement": "systemic exposure to prucalopride, compared with oral prucalopride itself", "setting": "[1]; [4]", "result": "substantially lower"}]}
{"smiles": "COCCCN1CCC(NC(=O)c2cc(Cl)c(N)c3c2OCC3)CC1", "note": "[prucalopride, 4-amino-5-chloro-2,3-dihydro-N-[1-(3-methoxypropyl)-4-piperidinyl]-7-benzofuran-carboxamide]", "values": [{"measurement": "agonism of 5-HT4 receptors", "setting": "5-HT4 receptors", "result": "potent and selective agonist"}, {"measurement": "affinity for 5-HT3A receptors", "setting": "5-HT3A receptors", "result": "no affinity"}, {"measurement": "colonic motility and defecation", "setting": "colon; animals", "result": "stimulates colonic motility and defecation"}, {"measurement": "giant contractions in the colon", "setting": "colon; propagated over the length of the colon as a peristaltic wave", "result": "induces giant contractions in the colon"}, {"measurement": "AUC0-∞ area under the plasma concentration-time extrapolated to infinity, prucalopride", "setting": "[1]; Dog 2, oral administration of prucalopride 2.5 mg/kg, prucalopride measured in plasma", "result": 4372, "unit": "ng·h/mL"}, {"measurement": "Cmax", "setting": "[1]; [5]", "result": 556, "unit": "ng/mL"}, {"measurement": "Tmax", "setting": "[1]; [5]", "result": 1, "unit": "h"}, {"measurement": "Cmax", "setting": "[1]; [6]", "result": 660, "unit": "ng/mL"}, {"measurement": "Tmax", "setting": "[1]; [6]", "result": 0.5, "unit": "h"}, {"measurement": "AUC(0-inf)", "setting": "[1]; male, beagle, Dog 1, oral administration of prucalopride 2.5 mg/kg, prucalopride measured in plasma, read-out: AUC0-∞ area under the plasma concentration-time extrapolated to infinity, prucalopride", "result": 4230, "unit": "ng·h/mL"}, {"measurement": "affinity for 5-HT2A receptors", "setting": "5-HT2A receptors", "result": "no affinity"}]}
